Laboratory results: patent US12485114B2, “Materials and methods useful to induce cancer cell death via methuosis or autophagy or a combination thereof” (The University of Toledo, priority 2017, dated 2025)

Columns and labels:
Assay in all cases: Morphological assessment of vacuolization
Format in all cases: cell-based
HCT-116 (colon cancer) = tested on: HCT-116 (colon cancer)
Source text: The methuophagy inducing activities of BAPT-27 were also prominent in different colon cancer cell lines with different genetic profiles. […] (FIG. 42). However, the vacuoles formation was not prominent in normal epithelial colon cells (CRL-1459). (FIG. 42).

[1] = tested on: BT-20 (triple negative breast cancer)
U-251 (glioblastoma) = tested on: U-251 (glioblastoma)

Measured: vacuolization

Cc1[nH]c2ccccc2c1-c1nn2c(-c3ccncc3)nnc2s1 [BAPT-36]
dose dependent vacuolization: all assays above
